From US7462600B2, “Macrolides” (Pfizer Inc, priority 2004, dated 2008)
Converted amounts (≈) assume the structure as drawn. Where two headings read alike, the source gives them in different places.

Columns and labels:
Format in all cases: cell-based
[1] = system: Streptococcus pyogenes 1079; assay: MIC, microtiter broth dilution (NCCLS M100-S14), S. pyogenes 1079 (ermB)
In short: (§1)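 Panel strains, including macrolide-resistant isolates and their susceptible parents where available, are exposed to serial compound dilutions in microtiter trays. Growth inhibition is scored as MIC under NCCLS M100-S14 standards.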

[2] = system: Streptococcus pneumoniae 1016; assay: MIC, microtiter broth dilution (NCCLS M100-S14), S. pneumoniae 1016 (susceptible)
In short: as §1

[3] = system: Streptococcus pneumoniae 1095; conditions: microtiter broth dilution
In short: as §1

[4] = system: Streptococcus pneumoniae 1175; conditions: microtiter broth dilution
In short: as §1

[5] = system: Haemophilus influenzae 1218; assay: MIC, microtiter broth dilution (NCCLS M100-S14), H. influenzae 1218 (susceptible)
In short: as §1

[6] = S. pneumoniae 1016 (susceptible)
[7] = H. influenzae 1218 (susceptible)

Row | SMILES | MIC S. pyogenes 1079 ([1]; S. pyogenes 1079 (ermB)) | MIC S. pneumo. 1016 [2, 6] | MIC S. pneumo. 1095 ([3]; S. pneumoniae 1095 (ermB)) | MIC S. pneumo. 1175 ([4]; S. pneumoniae 1175 (mefA)) | MIC H. influenzae 1218 [5, 7] | MIC S. pyogenes 1079 ([1]; Streptococcus pyogenes 1079) | MIC S. pneumo. 1016 ([2]; Streptococcus pneumoniae 1016) | MIC S. pneumo. 1095 ([3]; Streptococcus pneumoniae 1095) | MIC S. pneumo. 1175 ([4]; Streptococcus pneumoniae 1175) | MIC H. influenzae 1218 ([5]; Haemophilus influenzae 1218)
1 | CCC1OC(=O)C(C)C(=O)C(C)C(OC2OC(C)CC(N(C)C)C2O)C(C)(OC)CC(C)C(=O)C(C)C2N(CC3C4CN(C(=O)OC(C)(C)C)CC43)C(=O)OC12C (centres unmarked) [16.01] | >100.00 µg/mL | 0.25 µg/mL (≈ 0.309 µM) | 50 µg/mL (≈ 61.9 µM) | 25 µg/mL (≈ 30.9 µM) | 1.56 µg/mL (≈ 1.93 µM) | – | – | – | – | –
2 | CCC1OC(=O)C(C)C(=O)C(C)C(OC2OC(C)CC(N(C)C)C2O)C(C)(OC)CC(C)C(=O)C(C)C2N(CC3C4CN(C(=O)c5cccnc5)CC43)C(=O)OC12C (centres unmarked) [16.02] | >100.00 µg/mL | 0.02 µg/mL (≈ 0.0246 µM) | 3.12 µg/mL (≈ 3.84 µM) | 0.78 µg/mL (≈ 0.959 µM) | 0.78 µg/mL (≈ 0.959 µM) | – | – | – | – | –
3 | CCC1OC(=O)C(C)C(=O)C(C)C(OC2OC(C)CC(N(C)C)C2O)C(C)(OC)CC(C)C(=O)C(C)C2N(CC3C4CN(C(=O)c5cc(F)ccc5F)CC43)C(=O)OC12C (centres unmarked) [16.03] | 50 µg/mL (≈ 59 µM) | 0.01 µg/mL (≈ 0.0118 µM) | 1.56 µg/mL (≈ 1.84 µM) | 0.5 µg/mL (≈ 0.59 µM) | 0.5 µg/mL (≈ 0.59 µM) | – | – | – | – | –
4 | CCC1OC(=O)C(C)C(=O)C(C)C(OC2OC(C)CC(N(C)C)C2O)C(C)(OC)CC(C)C(=O)C(C)C2N(CC3C4CN(Cc5cccnc5)CC43)C(=O)OC12C (centres unmarked) [16.04] | >100.00 µg/mL | 0.03 µg/mL (≈ 0.0375 µM) | 3.12 µg/mL (≈ 3.9 µM) | >100.00 µg/mL | 0.5 µg/mL (≈ 0.626 µM) | – | – | – | – | –
5 | CCC1OC(=O)C(C)C(=O)C(C)C(OC2OC(C)CC(N(C)C)C2O)C(C)(OC)CC(C)C(=O)C(C)C2N(CC3C4CN(C(=O)c5cccc(C#N)c5)CC43)C(=O)OC12C (centres unmarked) [16.05] | 3.12 µg/mL (≈ 3.73 µM) | 0.01 µg/mL (≈ 0.0119 µM) | 1.56 µg/mL (≈ 1.86 µM) | 1.56 µg/mL (≈ 1.86 µM) | 0.5 µg/mL (≈ 0.597 µM) | – | – | – | – | –
6 | CCC1OC(=O)C(C)C(=O)C(C)C(OC2OC(C)CC(N(C)C)C2O)C(C)(OC)CC(C)C(=O)C(C)C2N(C3CN(Cc4ccccc4)C3)C(=O)OC12C (centres unmarked) [Example 1.01, benzyl] | – | – | – | – | – | >64.00 µg/mL | <0.06 µg/mL | <0.06 µg/mL | 0.12 µg/mL (≈ 0.158 µM) | 0.5 µg/mL (≈ 0.66 µM)
7 | CCC1OC(=O)C(C)C(=O)C(C)C(OC2OC(C)CC(N(C)C)C2O)C(C)(OC)CC(C)C(=O)C(C)C2N(C3CN(Cc4ccccn4)C3)C(=O)OC12C (centres unmarked) [Example 1.02, (pyridin-2-yl)methyl] | – | – | – | – | – | >64.00 µg/mL | <0.06 µg/mL | 0.12 µg/mL (≈ 0.158 µM) | 0.12 µg/mL (≈ 0.158 µM) | 0.25 µg/mL (≈ 0.329 µM)
8 | CCC1OC(=O)C(C)C(=O)C(C)C(OC2OC(C)CC(N(C)C)C2O)C(C)(OC)CC(C)C(=O)C(C)C2N(C3CN(Cc4cccnc4)C3)C(=O)OC12C (centres unmarked) [Example 1.03, (pyridin-3-yl)methyl] | – | – | – | – | – | >64.00 µg/mL | <0.06 µg/mL | <0.06 µg/mL | 2 µg/mL (≈ 2.64 µM) | 0.5 µg/mL (≈ 0.659 µM)
9 | CCC1OC(=O)C(C)C(=O)C(C)C(OC2OC(C)CC(N(C)C)C2O)C(C)(OC)CC(C)C(=O)C(C)C2N(C3CN(Cc4ccncc4)C3)C(=O)OC12C (centres unmarked) [Example 1.04, (pyridin-4-yl)methyl] | – | – | – | – | – | >64.00 µg/mL | <0.06 µg/mL | 0.12 µg/mL (≈ 0.158 µM) | 0.5 µg/mL (≈ 0.659 µM) | 0.25 µg/mL (≈ 0.329 µM)
10 | CCC1OC(=O)C(C)C(=O)C(C)C(OC2OC(C)CC(N(C)C)C2O)C(C)(OC)CC(C)C(=O)C(C)C2N(C3CN(Cc4cccc5cccnc45)C3)C(=O)OC12C (centres unmarked) [Example 1.05, (quinolin-8-yl)methyl] | – | – | – | – | – | 64 µg/mL (≈ 79.1 µM) | <0.06 µg/mL | <0.06 µg/mL | 0.12 µg/mL (≈ 0.148 µM) | 0.25 µg/mL (≈ 0.309 µM)
